Laboratory results as given in patent US20090118363A1, “SESAMIN-CLASS COMPOUND-CONTAINING FOODS OR BEVERAGES FOR ANIMALS” (priority 2006, published 2009).

Assay: Test of dissolving sesamin-class compounds into fats and oils (solubility)
Format: physicochemical
Method: Solubility of sesamin-class compounds to various fats and oils was determined. Sesamin, episesamin, and a mixture of sesamin and episesamin, sesamin:episesamin=51.1:48.2 (Takemoto Oil and Fat Co., Ltd.), were used as the sesamin-class compounds. The sesamin and the episesamin were prepared by isolating them from the mixture and purifying them. The respective sesamin-class compounds were dissolved into five different kinds of fats and oils, 100 g each, shown in Table 1 to determine a limit amount (solubility) of the respective sesamin-class compounds that can be dissolved completely. It is understood from Table 1 that the sesamin, the episesamin, and the mixture of the sesamin and the episesamin have different solubilities, and that the solubility varies in a manner that depends on the types of the fats and oils.

SMILES	Solubility in fats and oils: DG [%]	Solubility in fats and oils: MCT-1 [%]	Solubility in fats and oils: MCT-2 [%]	Solubility in fats and oils: olive oil [%]	Solubility in fats and oils: wheatgerm oil [%]
c1cc2c(cc1[C@H]1OC[C@H]3[C@@H]1CO[C@@H]3c1ccc3c(c1)OCO3)OCO2 [EPISESAMIN, episesamin]	1.0	2.5	2.5	0.5	0.75
c1cc2c(cc1[C@H]1OC[C@H]3[C@@H]1CO[C@@H]3c1ccc3c(c1)OCO3)OCO2 [SESAMIN, sesamin]	1.25	4.0	2.0	0.75	0.75
